{"source": "patent US20240360060A1", "about": "“6-HYDROXY-CANNABIDIOL-C4” (GW RESEARCH LIMITED, priority 2021, published 2024)", "key": {"[1]": {"system": "mouse model of generalised seizure (tonic hind limb extensor convulsions)", "test": "mini-MEST (maximal electroshock seizure threshold) test in the mouse", "details": "30 min post dose", "experimental": "The maximal electroshock seizure threshold (MEST) test is widely utilized preclinically to evaluate pro- or anti-convulsant properties of test compounds (Loscher et al., 1991).\nIn the MEST test the ability of a drug to alter the seizure threshold current required to induce hind limb tonic extensor convulsions is measured according to an “up and down” method of shock titration (Kimball et al., 1957). An increase in seizure threshold is indicative of anti-convulsant effect.\nThe ability of a test compound to alter the stimulus intensity, expressed as current (mA), required to induce the presence of tonic hind limb extensor convulsions, is assessed in the MEST.\nNaïve mice were acclimatized to the procedure room in their home cages for up to 7 days, with food and water available ad libitum.\nAll animals were weighed at the beginning of the study and randomly assigned to treatment groups based on a mean distribution of body weight across groups.\nThe first animal within a treatment group was given a shock at the expected or estimated CC50 current. For subsequent animals, the current was lowered or raised depending on the convulsions outcome from the preceding animal in log scale intervals.\nData generated from each treatment group were used to calculate the CC50±SEM values for the treatment group.\nThe test compound, described herein as Compound I, are as shown as Formula I. Test compound was administered at 150 mg/kg (i.p.) in a 1:2:17 ethanol:solutol:0.9% saline formulation.\nThe data for each treatment group were recorded as the number of +'s and 0's at each current level employed and this information is then used to calculate the CC50 value (current required for 50% of the animals to show seizure behaviour)±standard error.\nTest compound effects were also calculated as percentage change in CC50 from the vehicle control group.\nSignificant difference between drug-treated animals and controls were assessed according to Litchfield and Wilcoxon (1949)."}, "[2]": {"test": "Bioanalysis of Compound I in plasma and brain (UPLC-MS/MS)", "assay_type": "in vivo, mice", "details": "150 mg/kg i.p., 30 min post-dose, mouse; for concentration at 30 min: ip, 150 mg/kg", "experimental": "Each animal was humanely killed immediately after production of a convulsion by destruction of the brain from striking the cranium, followed by the confirmation of permanent cessation of the circulation from decapitation under The Humane Killing of Animals under Schedule 1 to the Animals (Scientific Procedures) Act 1986. Terminal blood and brain collection were performed following decapitation.\nBlood was collected in Lithium-heparin tubes and centrifuged at 4° C. for 10 minutes at 1500×g. The resulting plasma was removed (>100 μL) and split into 2 aliquots of 0.5 mL Eppendorf tubes containing 10 μL of ascorbic acid (100 mg/mL) for stabilisation. Brains were removed, washed in saline and halved. Each half was placed into separate 2 mL screw cap cryovials, weighed and frozen on cardice.\nBioanalysis experiments were carried out to determine the quantitative measurement of Compound I in plasma and brain.\nSix mice were dosed with Compound I at 150 mg/kg via intraperitoneal (i.p) injection. Sample analysis was performed 30 min post-dose using a sample volume of 40 μL. Following addition of internal standard (in acetonitrile) and Isopropanol samples were protein precipitated by addition of acetonitrile. Samples were centrifuged and supernatant transferred to a clean 96-well plate (with addition of Tween to minimise non-specific binding to plate materials), evaporated to dryness then reconstituted in suitable solvent. The extracts quantified by ultraperformance liquid chromatography-tandem mass spectromtry (UPLC-MS/MS)."}, "[3]": {"system": "MES model of generalised seizure", "details": "earlier filing WO 2020/104796; cited from earlier work"}}, "note": "“And” between values parts separate entries of the source, which are not always exact repeats. Equal values may be shown once. Read-outs that look alike come from different tables or passages of the source."}
{"smiles": "C=C(C)[C@@H]1C[C@H](O)C(C)=C[C@H]1c1c(O)cc(CCCC)cc1O", "note": "[Compound I, (1′R,2′R,4′S)-4-butyl-5′-methyl-2′-(prop-1-en-2-yl)-1′,2′,3′,4′-tetrahydro-[1,1′-biphenyl]-2,4′,6-triol]", "values": [{"measurement": "tonic hind limb convulsions in treatment group", "setting": "[1]; 150 mg/kg i.p., 6 animals", "result": "did not have any convulsions"}, {"measurement": "CC50 +/- SEM (current required for 50% of the animals to show seizure behaviour)", "setting": "[1]; 150 mg/kg i.p., N=6", "result": ">131", "unit": "mA"}, {"measurement": "Conc. in brain (individual animals; head: Plasma Conc.)", "setting": "[2]; brain", "result": "17.696 µM and 200.472 µM and 183.889 µM and 173.842 µM and 212.516 µM and 228.344 µM"}, {"measurement": "concentration at 30 min", "setting": "[2]; brain, brain, n=6, read-out: Mean conc. in brain (head: Mean Plasma Conc.)", "result": 169, "unit": "µM"}, {"measurement": "concentration at 30 min", "setting": "[2]; plasma, plasma, n=6, read-out: Mean Plasma Conc.", "result": 255, "unit": "µM"}, {"measurement": "Plasma Conc. (individual animals)", "setting": "[2]; plasma", "result": "379.642 µM and 242.369 µM and 47.322 µM and 295.516 µM and 268.44 µM and 299.404 µM"}]}
{"smiles": "CN1C(=O)CN=C(c2ccccc2)c2cc(Cl)ccc21", "note": "[Diazepam, diazepam, reference compound]", "values": [{"measurement": "% change from vehicle (CC50)", "setting": "[1]; 2.5 mg/kg i.p.", "result": 291, "unit": "%"}]}
{"smiles": "C=C(C)[C@@H]1CCC(C)=C[C@H]1c1c(O)cc(CCCC)cc1O", "note": "[CBD-C4, Cannabidiol-C4]", "values": [{"measurement": "anti-convulsant activity", "setting": "[3]", "result": "Therapeutic efficacy was shown"}]}
